The record followed here is patent US20120142646A1, “Novel Compounds 621” (priority 2006, published 2012).

Counter-ions that a name gives are not always drawn.

This test deals with T1, Adrenergic β2 (Homo sapiens, UniProt P07550).
T1 construct: Adherent H292 cells were removed from tissue culture flasks; endogenous in cells; host or cells: H292 cells
T1 sequence (P07550 whole entry): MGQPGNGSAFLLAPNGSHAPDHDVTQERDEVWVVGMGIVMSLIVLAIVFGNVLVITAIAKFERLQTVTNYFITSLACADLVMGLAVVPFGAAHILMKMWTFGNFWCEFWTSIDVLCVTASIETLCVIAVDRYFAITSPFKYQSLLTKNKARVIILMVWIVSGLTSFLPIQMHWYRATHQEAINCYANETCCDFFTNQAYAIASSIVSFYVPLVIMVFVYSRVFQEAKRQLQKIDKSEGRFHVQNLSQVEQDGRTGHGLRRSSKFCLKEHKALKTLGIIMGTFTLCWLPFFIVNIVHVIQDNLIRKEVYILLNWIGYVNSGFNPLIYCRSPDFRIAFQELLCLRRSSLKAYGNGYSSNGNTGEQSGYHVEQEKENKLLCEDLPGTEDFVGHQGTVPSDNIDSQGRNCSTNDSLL
Put plainly: Adrenergic β2 mediated cAMP production in H292 cells (AlphaScreen cAMP detection). Type of test: cell-based. Also noted: key to β2 Int Act: fraction of formoterol maximum activity (formoterol = 1). The following applies: Intrinsic Activity as a fraction relative to the maximum activity determined for formoterol. As to the method:
Adrenergic β2 Mediated cAMP Production
H292 cells were grown in 225 cm2 flasks incubator at 37° C., 5% CO2 in RPMI medium containing, 10% (v/v) FBS (foetal bovine serum) and 2 mM L-glutamine.
Adherent H292 cells were removed from tissue culture flasks by treatment with Accutase™ cell detachment solution for 15 minutes. Flasks were incubated for 15 minutes in a humidified incubator at 37° C., 5% CO2. Detached cells were re-suspended in RPMI media (containing 10% (v/v) FBS and 2 mM L-glutamine) at 1×10^6 cells per mL. 10000 cells in 100 μL were added to each well of a tissue-culture-treated 96-well plate and the cells incubated overnight in a humidified incubator at 37° C., 5% CO2. The culture media was removed and cells were washed twice with 100 μL assay buffer and replaced with 50 μL assay buffer (HBSS solution containing 10 mM HEPES pH7.4 and 5 mM glucose). Cells were rested at room temperature for 20 minutes after which time 25 μL of rolipram (1.2 mM made up in assay buffer containing 2.4% (v/v) dimethylsulphoxide) was added. Cells were incubated with rolipram for 10 minutes after which time test compounds were added and the cells were incubated for 60 minutes at room temperature. The final rolipram concentration in the assay was 300 μM and final vehicle concentration was 1.6% (v/v) dimethylsulphoxide. The reaction was stopped by removing supernatants, washing once with 100 μL assay buffer and replacing with 50 μL lysis buffer. The cell monolayer was frozen at −80° C. for 30 minutes (or overnight).
AlphaScreen™ cAMP Detection
The concentration of cAMP (cyclic adenosine monophosphate) in the cell lysate was determined using AlphaScreen™ methodology. The frozen cell plate was thawed for 20 minutes on a plate shaker then 10 μL of the cell lysate was transferred to a 96-well white plate. 40 μL of mixed AlphaScreen™ detection beads pre-incubated with biotinylated cAMP, was added to each well and the plate incubated at room temperature for 10 hours in the dark. The AlphaScreen™ signal was measured using an EnVision spectrophotometer (Perkin-Elmer Inc.) with the recommended manufacturer's settings. cAMP concentrations were determined by reference to a calibration curve determined in the same experiment using standard cAMP concentrations. Concentration response curves for agonists were constructed and data was fitted to a four parameter logistic equation to determine both the pEC50 and Intrinsic Activity. Intrinsic Activity was expressed as a fraction relative to the maximum activity determined for formoterol in each experiment.
(Cyclic AMP is a second messenger, typically raised through Gs and lowered through Gi signalling.)
As to `O=C1COc2c(CCNCCN(C(=O)CCNCCc3ccc(Cl)c(Cl)c3)C3CCCCCC3)ccc(O)c2N1` [Example 26, N-Cycloheptyl-3-(3,4-dichlorophenethylamino)-N-(2-(2-(5-hydroxy-3-oxo-3,4-dihydro-2H-benzo[b][1,4]oxazin-8-yl)ethylamino)ethyl)propanamide bis(trifluoroacetate)], the “β2 Int Act” value stood at 0.74. Then `O=C1Cc2c(CCNCCN(C(=O)CCNCCc3cccc(F)c3)C3CCCCC3)ccc(O)c2N1` [Example 20, N-Cyclohexyl-3-(3-fluorophenethylamino)-N-(2-(2-(7-hydroxy-2-oxoindolin-4-yl)ethylamino)ethyl)propanamide dihydrobromide], with 0.78; and `O=C(CCOCCc1ccccc1)N(CCNCCc1ccc(O)c2[nH]c(=O)ccc12)C1CCCCC1` [Example 2, N-Cyclohexyl-N-(2-(2-(8-hydroxy-2-oxo-1,2-dihydroquinolin-5-yl)ethylamino)ethyl)-3-phenethoxypropanamide], with 0.93. For the compound `CCCC[C@@H](C)N(CCNCCc1ccc(O)c2c1OCC(=O)N2)C(=O)CCNCCc1cccc(F)c1F` [Example 53, (R)-3-(2,3-Difluorophenethylamino)-N-(hexan-2-yl)-N-(2-(2-(5-hydroxy-3-oxo-3,4-dihydro-2H-benzo[b][1,4]oxazin-8-yl)ethylamino)ethyl)propanamide bis(trifluoroacetate)], the “β2 Int Act” value amounted to 0.99. Then `O=C1COc2c(CCNCCN(C(=O)CCNCCc3cccc(Cl)c3Cl)C3CCCCC3)ccc(O)c2N1` [Example 29, N-Cyclohexyl-3-(2,3-dichlorophenethylamino)-N-(2-(2-(5-hydroxy-3-oxo-3,4-dihydro-2H-benzo[b][1,4]oxazin-8-yl)ethylamino)ethyl)propanamide bis(trifluoroacetate)], with 0.91; and `O=C(CCNCCc1cccc(F)c1)N(CCNCCc1ccc(O)c2[nH]c(=O)ccc12)C1CCCCC1` [Example 19, N-Cyclohexyl-3-(3-fluorophenethylamino)-N-(2-(2-(8-hydroxy-2-oxo-1,2-dihydroquinolin-5-yl)ethylamino)ethyl)propanamide], with 0.87. For `O=C1COc2c(CCNCCN(C(=O)CCNCCc3ccccc3)C3CCCCC3)ccc(O)c2N1` [Example 23, N-Cyclohexyl-N-(2-(2-(5-hydroxy-3-oxo-3,4-dihydro-2H-benzo[b][1,4]oxazin-8-yl)ethylamino)ethyl)-3-(phenethylamino)propanamide bis(trifluoroacetate)] the value was 0.79; for `CCCC[C@@H](C)N(CCNCCc1ccc(O)c2c1OCC(=O)N2)C(=O)CCNCCc1cc(F)cc(F)c1` [Example 51, (R)-3-(3,5-Difluorophenethylamino)-N-(hexan-2-yl)-N-(2-(2-(5-hydroxy-3-oxo-3,4-dihydro-2H-benzo[b][1,4]oxazin-8-yl)ethylamino)ethyl)propanamide bis(trifluoroacetate)], 0.94. For `O=C1COc2c(CCNCCN(C(=O)CCNCCc3ccc(F)c(F)c3)C3CCCCC3)ccc(O)c2N1` [Example 42, N-Cyclohexyl-3-(3,4-difluorophenethylamino)-N-(2-(2-(5-hydroxy-3-oxo-3,4-dihydro-2H-benzo[b][1,4]oxazin-8-yl)ethylamino)ethyl)propanamide bis(trifluoroacetate)] the value was 0.9; for `O=C(CCNCCc1cccc(F)c1F)N(CCNCCc1ccc(O)c2[nH]c(=O)ccc12)C1CCCCC1` [Example 18, N-Cyclohexyl-3-(2,3-difluorophenethylamino)-N-(2-(2-(8-hydroxy-2-oxo-1,2-dihydroquinolin-5-yl)ethylamino)ethyl)propanamide bis(trifluoroacetate)], 0.95.

`O=C(CCNCCc1cc(F)cc(F)c1)N(CCNCCc1ccc(O)c2[nH]c(=O)ccc12)C1CCCCC1` [Example 15, N-Cyclohexyl-3-(3,5-difluorophenethylamino)-N-(2-(2-(8-hydroxy-2-oxo-1,2-dihydroquinolin-5-yl)ethylamino)ethyl)propanamide bis(trifluoroacetate)]: the “β2 Int Act” value is recorded as 0.88. Take `O=C(CCNCCc1ccccc1)N(CCNCCc1ccc(O)c2[nH]c(=O)ccc12)C1CCCCCC1` [Example 7, N-Cycloheptyl-N-(2-(2-(8-hydroxy-2-oxo-1,2-dihydroquinolin-5-yl)ethylamino)ethyl)-3-(phenethylamino)propanamide bis(trifluoroacetate)]: the “β2 Int Act” value amounted to 0.76. On to `CCCC[C@@H](C)N(CCNCCc1ccc(O)c2c1OCC(=O)N2)C(=O)CCNCCc1ccc(F)c(C)c1` [Example 47, (R)-3-(4-Fluoro-3-methylphenethylamino)-N-(hexan-2-yl)-N-(2-(2-(5-hydroxy-3-oxo-3,4-dihydro-2H-benzo[b][1,4]oxazin-8-yl)ethylamino)ethyl)propanamide bis(trifluoroacetate)], for which the “β2 Int Act” value is 0.89. Then `CCCC[C@@H](C)N(CCNCCc1ccc(O)c2c1OCC(=O)N2)C(=O)CCNCCc1cc(F)cc(Cl)c1` [Example 50, (R)-3-(3-Chloro-5-fluorophenethylamino)-N-(hexan-2-yl)-N-(2-(2-(5-hydroxy-3-oxo-3,4-dihydro-2H-benzo[b][1,4]oxazin-8-yl)ethylamino)ethyl)propanamide bis(trifluoroacetate)], with 0.89; and `Cl.O=C(CCOCCc1ccc(F)cc1)N(CCNCCc1ccc(O)c2[nH]c(=O)ccc12)C1CCCCC1` [Example 71, N-Cyclohexyl-3-(4-fluorophenethoxy)-N-(2-(2-(8-hydroxy-2-oxo-1,2-dihydroquinolin-5-yl)ethylamino)ethyl)propanamide hydrochloride], with 0.85; and `Cc1cccc(CCNCCC(=O)N(CCNCCc2ccc(O)c3[nH]c(=O)ccc23)C2CCCCCC2)c1` [Example 8, N-Cycloheptyl-N-(2-(2-(8-hydroxy-2-oxo-1,2-dihydroquinolin-5-yl)ethylamino)ethyl)-3-(3-methylphenethylamino)propanamide bis(trifluoroacetate)], with 0.79.

For `CCCCN(CCNCCc1ccc(O)c2[nH]c(=O)ccc12)C(=O)CCOCCc1ccccc1` [Example 1, N-Butyl-N-(2-(2-(8-hydroxy-2-oxo-1,2-dihydroquinolin-5-yl)ethylamino)ethyl)-3-phenethoxypropanamide hydrochloride], the “β2 Int Act” value is reported as 0.9.

For the compound `O=C1COc2c(CCNCCN(C(=O)CCNCCc3ccccc3Cl)C3CCCCC3)ccc(O)c2N1` [Example 28, 3-(2-Chlorophenethylamino)-N-cyclohexyl-N-(2-(2-(5-hydroxy-3-oxo-3,4-dihydro-2H-benzo[b][1,4]oxazin-8-yl)ethylamino)ethyl)propanamide bis(trifluoroacetate)], the “β2 Int Act” value stood at 0.86.

Consider `O=C(CCNCCc1cc(F)ccc1F)N(CCNCCc1ccc(O)c2[nH]c(=O)ccc12)C1CCCCC1` [Example 17, N-Cyclohexyl-3-(2,5-difluorophenethylamino)-N-(2-(2-(8-hydroxy-2-oxo-1,2-dihydroquinolin-5-yl)ethylamino)ethyl)propanamide bis(trifluoroacetate)], for which the “β2 Int Act” value came out at 0.93.
